From ChEMBL document CHEMBL3885881, “DrugMatrix”

Species on record: Rattus norvegicus
Assay: DrugMatrix - Regimen: Daily Repeat
Format: toxicity, organism-based, Sprague-Dawley
Parameters: regimen Daily Repeat, gender Male, age 6-8 weeks
Conditions: in vivo, po, route oral GAVAGE, vehicle 100 % WATER; for ABSOLUTE BASOPHIL / ABSOLUTE EOSINOPHIL / ABSOLUTE LYMPHOCYTE / ABSOLUTE MONOCYTE / ABSOLUTE SEGMENTED NEUTROPHIL / BASOPHIL / EOSINOPHIL / ERYTHROCYTE COUNT / HEMATOCRIT / HEMOGLOBIN / LEUKOCYTE COUNT / LYMPHOCYTE / MEAN CORPUSCULAR HEMOGLOBIN / MEAN CORPUSCULAR HEMOGLOBIN CONCENTRATION / MEAN CORPUSCULAR VOLUME / MONOCYTE / NEUTROPHIL / NUCLEATED RED BLOOD CELLS / PLATELET COUNT: tissue Blood; for ALANINE AMINOTRANSFERASE / ALBUMIN / ALKALINE PHOSPHATASE / ASPARTATE AMINOTRANSFERASE / BLOOD UREA NITROGEN / CARBON DIOXIDE / CHLORIDE / CHOLESTEROL / CREATINE PHOSPHOKINASE / CREATININE / GLUCOSE / LACTATE DEHYDROGENASE / LIPASE / PHOSPHORUS / POTASSIUM / SODIUM / TOTAL BILIRUBIN / TOTAL PROTEIN / URIC ACID: tissue Plasma
[1] = 50 mg/kg, 120 h, dose level Low, time 5 day
[2] = 1500 mg/kg, 72 h, dose level High, time 3 day
[3] = 1500 mg/kg, 120 h, dose level High, time 5 day

Cc1ncc([N+](=O)[O-])n1CCO [METRONIDAZOLE]
ABSOLUTE BASOPHIL [1]: 0 CELLS/uL
ABSOLUTE EOSINOPHIL [1]: 0 CELLS/uL
ABSOLUTE LYMPHOCYTE [1]: 11707 CELLS/uL
ABSOLUTE MONOCYTE [1]: 0 CELLS/uL
ABSOLUTE SEGMENTED NEUTROPHIL [1]: 459.67 CELLS/uL
BASOPHIL [1]: 0%
EOSINOPHIL [1]: 0%
ERYTHROCYTE COUNT [1]: 6 x10E6/uL
HEMATOCRIT [1]: 36.43%
HEMOGLOBIN [1]: 13.8 G/DL
LEUKOCYTE COUNT [1]: 12.17 x10E3/uL
LYMPHOCYTE [1]: 96.33%
MEAN CORPUSCULAR HEMOGLOBIN [1]: 23.03 pg
MEAN CORPUSCULAR HEMOGLOBIN CONCENTRATION [1]: 37.87 G/DL
MEAN CORPUSCULAR VOLUME [1]: 60.9 fL
MONOCYTE [1]: 0%
NEUTROPHIL [1]: 3.67%
NUCLEATED RED BLOOD CELLS [1]: 0.33 /100WBC
PLATELET COUNT [1]: 986 x10E3/uL
ALANINE AMINOTRANSFERASE [1]: 61 u/L
ALBUMIN [1]: 4.07 G/DL
ALKALINE PHOSPHATASE [1]: 338 u/L
ASPARTATE AMINOTRANSFERASE [1]: 108.33 u/L
BLOOD UREA NITROGEN [1]: 13.67 mg/dL
CARBON DIOXIDE [1]: 30.67 mmol/L
CHLORIDE [1]: 100.33 MEQ/L
CHOLESTEROL [1]: 67 mg/dL
CREATINE PHOSPHOKINASE [1]: 1022 u/L
CREATININE [1]: 0.16 mg/dL
GLUCOSE [1]: 151.33 mg/dL
LACTATE DEHYDROGENASE [1]: 207.67 u/L
LIPASE [1]: 10.67 u/L
PHOSPHORUS [1]: 11.73 mg/dL
POTASSIUM [1]: 5.65 MEQ/L
SODIUM [1]: 145.1 MEQ/L
TOTAL BILIRUBIN [1]: 0.13 mg/dL
TOTAL PROTEIN [1]: 6.17 G/DL
URIC ACID [1]: 1 mg/dL
ABSOLUTE BASOPHIL [2]: 0 CELLS/uL
ABSOLUTE EOSINOPHIL [2]: 49.33 CELLS/uL
ABSOLUTE LYMPHOCYTE [2]: 11170.67 CELLS/uL
ABSOLUTE MONOCYTE [2]: 122.67 CELLS/uL
ABSOLUTE SEGMENTED NEUTROPHIL [2]: 924 CELLS/uL
BASOPHIL [2]: 0%
EOSINOPHIL [2]: 0.33%
ERYTHROCYTE COUNT [2]: 5.75 x10E6/uL
HEMATOCRIT [2]: 36.7%
HEMOGLOBIN [2]: 14.07 G/DL
LEUKOCYTE COUNT [2]: 12.27 x10E3/uL
LYMPHOCYTE [2]: 91.33%
MEAN CORPUSCULAR HEMOGLOBIN [2]: 24.47 pg
MEAN CORPUSCULAR HEMOGLOBIN CONCENTRATION [2]: 38.33 G/DL
MEAN CORPUSCULAR VOLUME [2]: 63.8 fL
MONOCYTE [2]: 1%
NEUTROPHIL [2]: 7.33%
NUCLEATED RED BLOOD CELLS [2]: 0 /100WBC
PLATELET COUNT [2]: 1295.67 x10E3/uL
ALANINE AMINOTRANSFERASE [2]: 71 u/L
ALBUMIN [2]: 4.03 G/DL
ALKALINE PHOSPHATASE [2]: 332 u/L
ASPARTATE AMINOTRANSFERASE [2]: 84.33 u/L
BLOOD UREA NITROGEN [2]: 15 mg/dL
CARBON DIOXIDE [2]: 32.33 mmol/L
CHLORIDE [2]: 102 MEQ/L
CHOLESTEROL [2]: 87 mg/dL
CREATINE PHOSPHOKINASE [2]: 331.67 u/L
CREATININE [2]: 0.23 mg/dL
GLUCOSE [2]: 134.67 mg/dL
LACTATE DEHYDROGENASE [2]: 176.33 u/L
LIPASE [2]: 12 u/L
PHOSPHORUS [2]: 10.83 mg/dL
POTASSIUM [2]: 5.73 MEQ/L
SODIUM [2]: 146.4 MEQ/L
TOTAL BILIRUBIN [2]: 0.1 mg/dL
TOTAL PROTEIN [2]: 5.9 G/DL
URIC ACID [2]: 0.4 mg/dL
ABSOLUTE BASOPHIL [3]: 0 CELLS/uL
ABSOLUTE EOSINOPHIL [3]: 0 CELLS/uL
ABSOLUTE LYMPHOCYTE [3]: 10466.67 CELLS/uL
ABSOLUTE MONOCYTE [3]: 94 CELLS/uL
ABSOLUTE SEGMENTED NEUTROPHIL [3]: 906 CELLS/uL
BASOPHIL [3]: 0%
EOSINOPHIL [3]: 0%
ERYTHROCYTE COUNT [3]: 6.09 x10E6/uL
HEMATOCRIT [3]: 39.27%
HEMOGLOBIN [3]: 15.2 G/DL
LEUKOCYTE COUNT [3]: 11.47 x10E3/uL
LYMPHOCYTE [3]: 91.67%
MEAN CORPUSCULAR HEMOGLOBIN [3]: 25.03 pg
MEAN CORPUSCULAR HEMOGLOBIN CONCENTRATION [3]: 38.73 G/DL
MEAN CORPUSCULAR VOLUME [3]: 64.6 fL
MONOCYTE [3]: 1%
NEUTROPHIL [3]: 7.33%
NUCLEATED RED BLOOD CELLS [3]: 0 /100WBC
PLATELET COUNT [3]: 962 x10E3/uL
ALANINE AMINOTRANSFERASE [3]: 79.33 u/L
ALBUMIN [3]: 4.3 G/DL
ALKALINE PHOSPHATASE [3]: 365 u/L
ASPARTATE AMINOTRANSFERASE [3]: 91.67 u/L
BLOOD UREA NITROGEN [3]: 17.67 mg/dL
CARBON DIOXIDE [3]: 32.33 mmol/L
CHLORIDE [3]: 101.67 MEQ/L
CHOLESTEROL [3]: 66.33 mg/dL
CREATINE PHOSPHOKINASE [3]: 679.67 u/L
CREATININE [3]: 0.18 mg/dL
GLUCOSE [3]: 138.33 mg/dL
LACTATE DEHYDROGENASE [3]: 145.33 u/L
LIPASE [3]: 11 u/L
PHOSPHORUS [3]: 11.17 mg/dL
POTASSIUM [3]: 6.28 MEQ/L
SODIUM [3]: 147.87 MEQ/L
TOTAL BILIRUBIN [3]: 0.13 mg/dL
TOTAL PROTEIN [3]: 6.17 G/DL
URIC ACID [3]: 0.83 mg/dL
